Assays:
5-HT transporter (h) = molecular target: T1, 5-HT transporter (h) (Homo sapiens, UniProt P31645); assay: biochemical; set-up: CEREP off-target panel, radioligand binding, inhibition of control specific binding; details: read-out: % Inhibition of Control Specific Binding, Mean
T1 construct: gene SLC6A4

[1] = molecular target: T2, N neuronal α4β2 (h) (agonist radioligand) (Homo sapiens, UniProt P17787+P43681); assay: biochemical; set-up: CEREP off-target panel, radioligand binding, inhibition of control specific binding; details: read-out: % Inhibition of Control Specific Binding, Mean
T2 construct: gene CHRNB2; agonist radioligand

[2] = molecular target: T3, D1(h) (antagonist radioligand) (Homo sapiens, UniProt P21728); assay: biochemical; set-up: CEREP off-target panel, radioligand binding, inhibition of control specific binding; details: read-out: % Inhibition of Control Specific Binding, Mean
T3 construct: gene DRD1; antagonist radioligand
T3 sequence (P21728 whole entry): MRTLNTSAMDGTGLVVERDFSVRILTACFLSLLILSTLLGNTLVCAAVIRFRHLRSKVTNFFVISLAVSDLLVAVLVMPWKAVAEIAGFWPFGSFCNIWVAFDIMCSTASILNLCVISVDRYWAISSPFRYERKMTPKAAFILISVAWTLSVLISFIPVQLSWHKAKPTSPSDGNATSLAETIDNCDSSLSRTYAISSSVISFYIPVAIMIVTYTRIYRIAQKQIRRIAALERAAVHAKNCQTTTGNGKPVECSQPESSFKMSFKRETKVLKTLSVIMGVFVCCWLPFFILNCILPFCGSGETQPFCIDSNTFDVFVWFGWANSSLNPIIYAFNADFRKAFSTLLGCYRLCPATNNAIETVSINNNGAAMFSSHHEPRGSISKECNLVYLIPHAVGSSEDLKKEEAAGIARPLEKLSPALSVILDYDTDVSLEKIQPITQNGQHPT

[3] = molecular target: T4, D2S(h) (agonist radioligand) (Homo sapiens, UniProt P14416); assay: biochemical; set-up: CEREP off-target panel, radioligand binding, inhibition of control specific binding; details: read-out: % Inhibition of Control Specific Binding, Mean
T4 construct: gene DRD2; short isoform (D2S), agonist radioligand
T4 sequence (P14416 whole entry, canonical isoform): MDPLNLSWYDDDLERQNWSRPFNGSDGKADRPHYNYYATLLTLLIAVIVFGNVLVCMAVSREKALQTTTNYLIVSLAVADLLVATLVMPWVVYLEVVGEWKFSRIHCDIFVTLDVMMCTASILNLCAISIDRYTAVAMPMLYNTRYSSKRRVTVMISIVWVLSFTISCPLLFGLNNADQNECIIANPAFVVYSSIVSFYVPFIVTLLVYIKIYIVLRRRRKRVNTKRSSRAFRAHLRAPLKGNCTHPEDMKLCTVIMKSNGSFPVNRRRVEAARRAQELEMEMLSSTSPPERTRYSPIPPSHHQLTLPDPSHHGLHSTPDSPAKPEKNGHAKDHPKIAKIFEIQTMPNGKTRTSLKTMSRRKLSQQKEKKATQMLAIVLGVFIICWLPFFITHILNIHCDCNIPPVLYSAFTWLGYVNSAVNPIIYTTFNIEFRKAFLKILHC

[4] = molecular target: T5, CB1(h) (agonist radioligand) (Homo sapiens, UniProt P21554); assay: biochemical; set-up: CEREP off-target panel, radioligand binding, inhibition of control specific binding; details: read-out: % Inhibition of Control Specific Binding, Mean
T5 construct: gene CNR1; agonist radioligand

[5] = molecular target: T6, β1(h) (agonist radioligand) (Homo sapiens, UniProt P08588); assay: biochemical; set-up: CEREP off-target panel, radioligand binding, inhibition of control specific binding; details: read-out: % Inhibition of Control Specific Binding, Mean
T6 construct: gene ADRB1; agonist radioligand
T6 sequence (P08588 whole entry): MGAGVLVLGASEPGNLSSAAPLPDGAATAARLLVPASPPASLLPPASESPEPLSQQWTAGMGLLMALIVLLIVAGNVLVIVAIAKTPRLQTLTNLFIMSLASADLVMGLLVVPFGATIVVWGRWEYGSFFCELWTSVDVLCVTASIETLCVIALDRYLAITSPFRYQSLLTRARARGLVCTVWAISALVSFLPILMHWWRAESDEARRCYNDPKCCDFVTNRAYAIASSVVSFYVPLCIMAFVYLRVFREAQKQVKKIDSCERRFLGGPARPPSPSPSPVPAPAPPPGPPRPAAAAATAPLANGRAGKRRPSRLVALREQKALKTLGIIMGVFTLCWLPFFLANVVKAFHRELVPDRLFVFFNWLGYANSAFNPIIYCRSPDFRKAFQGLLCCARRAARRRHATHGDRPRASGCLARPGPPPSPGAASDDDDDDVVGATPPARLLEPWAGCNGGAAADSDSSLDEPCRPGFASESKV

[6] = molecular target: T7, M2 (h) (antagonist radioligand) (Homo sapiens, UniProt P08172); assay: biochemical; set-up: CEREP off-target panel, radioligand binding, inhibition of control specific binding; details: read-out: % Inhibition of Control Specific Binding, Mean
T7 construct: gene CHRM2; antagonist radioligand
T7 sequence (P08172 whole entry): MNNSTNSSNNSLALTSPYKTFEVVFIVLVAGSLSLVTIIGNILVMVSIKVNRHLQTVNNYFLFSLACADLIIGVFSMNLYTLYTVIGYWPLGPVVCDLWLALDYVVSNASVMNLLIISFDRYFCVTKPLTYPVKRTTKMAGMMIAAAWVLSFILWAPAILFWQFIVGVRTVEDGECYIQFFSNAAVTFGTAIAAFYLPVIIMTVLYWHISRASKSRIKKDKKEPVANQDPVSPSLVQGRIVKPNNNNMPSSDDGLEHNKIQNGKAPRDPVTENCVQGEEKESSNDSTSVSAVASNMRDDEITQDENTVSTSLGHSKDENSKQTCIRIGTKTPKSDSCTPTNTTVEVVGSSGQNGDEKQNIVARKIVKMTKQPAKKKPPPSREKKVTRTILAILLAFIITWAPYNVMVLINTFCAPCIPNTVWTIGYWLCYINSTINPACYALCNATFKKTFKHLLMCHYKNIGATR

[7] = molecular target: T8, δ (DOP) (h) (agonist radioligand) (Homo sapiens, UniProt P41143); assay: biochemical; set-up: CEREP off-target panel, radioligand binding, inhibition of control specific binding; details: read-out: % Inhibition of Control Specific Binding, Mean
T8 construct: gene OPRD1; agonist radioligand

[8] = molecular target: T9, H2(h) (antagonist radioligand) (Homo sapiens, UniProt P25021); assay: biochemical; set-up: CEREP off-target panel, radioligand binding, inhibition of control specific binding; details: read-out: % Inhibition of Control Specific Binding, Mean
T9 construct: gene HRH2; antagonist radioligand

[9] = molecular target: T10, 5-HT3(h) (antagonist radioligand) (Homo sapiens, UniProt P46098); assay: biochemical; set-up: CEREP off-target panel, radioligand binding, inhibition of control specific binding; details: read-out: % Inhibition of Control Specific Binding, Mean
T10 construct: gene HTR3A; antagonist radioligand

[10] = molecular target: T11, CCK1 (CCKA) (h) (agonist radioligand) (Homo sapiens, UniProt P32238); assay: biochemical; set-up: CEREP off-target panel, radioligand binding, inhibition of control specific binding; details: read-out: % Inhibition of Control Specific Binding, Mean
T11 construct: gene CCKAR; agonist radioligand
T11 sequence (P32238 whole entry): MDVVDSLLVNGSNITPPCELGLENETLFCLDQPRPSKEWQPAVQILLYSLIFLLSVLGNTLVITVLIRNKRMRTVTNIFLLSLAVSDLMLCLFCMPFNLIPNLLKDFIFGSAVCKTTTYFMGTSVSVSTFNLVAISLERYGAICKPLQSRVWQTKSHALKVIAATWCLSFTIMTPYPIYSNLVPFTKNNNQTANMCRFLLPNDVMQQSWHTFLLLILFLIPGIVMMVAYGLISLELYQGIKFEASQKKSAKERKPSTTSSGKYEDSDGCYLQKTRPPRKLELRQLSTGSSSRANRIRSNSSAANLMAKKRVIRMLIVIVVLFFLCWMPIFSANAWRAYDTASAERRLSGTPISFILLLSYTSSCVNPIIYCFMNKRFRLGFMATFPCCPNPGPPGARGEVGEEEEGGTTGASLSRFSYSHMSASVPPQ

[11] = molecular target: T12, α1A(h) (antagonist radioligand) (Homo sapiens, UniProt P35348); assay: biochemical; set-up: CEREP off-target panel, radioligand binding, inhibition of control specific binding; details: read-out: % Inhibition of Control Specific Binding, Mean
T12 construct: gene ADRA1A; antagonist radioligand

[12] = molecular target: T13, α2A(h) (antagonist radioligand) (Homo sapiens, UniProt P08913); assay: biochemical; set-up: CEREP off-target panel, radioligand binding, inhibition of control specific binding; details: read-out: % Inhibition of Control Specific Binding, Mean
T13 construct: gene ADRA2A; antagonist radioligand
T13 sequence (P08913 whole entry): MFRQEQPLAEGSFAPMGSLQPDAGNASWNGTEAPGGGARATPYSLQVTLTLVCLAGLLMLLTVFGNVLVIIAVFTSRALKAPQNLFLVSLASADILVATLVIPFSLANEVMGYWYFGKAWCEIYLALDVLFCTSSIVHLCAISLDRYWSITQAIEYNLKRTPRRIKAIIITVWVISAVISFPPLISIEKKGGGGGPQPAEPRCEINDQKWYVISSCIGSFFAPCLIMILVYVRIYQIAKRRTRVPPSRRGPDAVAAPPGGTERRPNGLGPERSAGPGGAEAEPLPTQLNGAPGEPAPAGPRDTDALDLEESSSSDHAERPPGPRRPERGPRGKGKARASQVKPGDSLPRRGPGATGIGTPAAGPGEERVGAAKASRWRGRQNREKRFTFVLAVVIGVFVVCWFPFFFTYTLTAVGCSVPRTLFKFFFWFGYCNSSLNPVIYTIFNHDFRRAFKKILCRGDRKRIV

[13] = molecular target: T14, GR (h) (agonist radioligand) (Homo sapiens, UniProt P04150); assay: biochemical; set-up: CEREP off-target panel, radioligand binding, inhibition of control specific binding; details: read-out: % Inhibition of Control Specific Binding, Mean
T14 construct: gene NR3C1; agonist radioligand

[14] = molecular target: T15, kappa (h) (KOP) (agonist radioligand) (Homo sapiens, UniProt P41145); assay: biochemical; set-up: CEREP off-target panel, radioligand binding, inhibition of control specific binding; details: read-out: % Inhibition of Control Specific Binding, Mean
T15 construct: gene OPRK1; agonist radioligand
T15 sequence (P41145 whole entry): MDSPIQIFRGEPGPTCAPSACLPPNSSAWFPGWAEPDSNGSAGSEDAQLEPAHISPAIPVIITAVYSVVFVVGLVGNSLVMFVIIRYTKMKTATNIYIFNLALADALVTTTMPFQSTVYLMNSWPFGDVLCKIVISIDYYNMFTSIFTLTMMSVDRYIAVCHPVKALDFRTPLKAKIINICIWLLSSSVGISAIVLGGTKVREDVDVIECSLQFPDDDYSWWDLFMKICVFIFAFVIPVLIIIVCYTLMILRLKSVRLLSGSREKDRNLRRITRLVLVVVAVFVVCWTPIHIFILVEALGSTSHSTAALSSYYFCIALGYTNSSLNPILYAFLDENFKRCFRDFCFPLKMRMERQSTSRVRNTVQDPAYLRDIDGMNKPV

[15] = molecular target: T16, AR(h) (agonist radioligand) (Homo sapiens, UniProt P10275); assay: biochemical; set-up: CEREP off-target panel, radioligand binding, inhibition of control specific binding; details: read-out: % Inhibition of Control Specific Binding, Mean
T16 construct: agonist radioligand
T16 sequence (P10275 whole entry): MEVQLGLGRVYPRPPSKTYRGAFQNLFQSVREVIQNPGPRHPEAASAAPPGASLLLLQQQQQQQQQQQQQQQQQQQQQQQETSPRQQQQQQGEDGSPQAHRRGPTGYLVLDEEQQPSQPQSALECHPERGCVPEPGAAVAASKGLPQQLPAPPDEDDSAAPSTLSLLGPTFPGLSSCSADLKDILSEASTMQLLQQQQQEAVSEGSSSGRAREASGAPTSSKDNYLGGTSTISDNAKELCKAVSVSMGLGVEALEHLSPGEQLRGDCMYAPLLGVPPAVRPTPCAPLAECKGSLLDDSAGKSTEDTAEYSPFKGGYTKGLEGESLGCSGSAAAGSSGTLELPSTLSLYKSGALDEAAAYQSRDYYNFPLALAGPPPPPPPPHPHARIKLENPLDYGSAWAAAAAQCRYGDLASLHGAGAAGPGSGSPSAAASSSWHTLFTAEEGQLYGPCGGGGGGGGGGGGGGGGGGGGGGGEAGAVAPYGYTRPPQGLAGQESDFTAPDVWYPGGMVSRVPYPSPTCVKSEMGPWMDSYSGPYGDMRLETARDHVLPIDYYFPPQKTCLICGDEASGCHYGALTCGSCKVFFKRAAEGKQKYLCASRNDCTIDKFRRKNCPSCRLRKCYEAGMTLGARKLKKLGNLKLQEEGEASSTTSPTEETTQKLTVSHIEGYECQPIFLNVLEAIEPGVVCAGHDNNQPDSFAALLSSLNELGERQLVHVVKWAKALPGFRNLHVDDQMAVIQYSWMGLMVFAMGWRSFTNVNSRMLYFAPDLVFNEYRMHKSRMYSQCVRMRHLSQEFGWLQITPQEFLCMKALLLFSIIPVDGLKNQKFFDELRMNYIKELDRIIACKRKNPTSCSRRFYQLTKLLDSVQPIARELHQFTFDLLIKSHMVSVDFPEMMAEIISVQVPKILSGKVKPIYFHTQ

dopamine transporter(h) = molecular target: T17, dopamine transporter(h) (Homo sapiens, UniProt Q01959); assay: biochemical; set-up: CEREP off-target panel, radioligand binding, inhibition of control specific binding; details: read-out: % Inhibition of Control Specific Binding, Mean
T17 construct: gene SLC6A3
T17 sequence (Q01959 whole entry): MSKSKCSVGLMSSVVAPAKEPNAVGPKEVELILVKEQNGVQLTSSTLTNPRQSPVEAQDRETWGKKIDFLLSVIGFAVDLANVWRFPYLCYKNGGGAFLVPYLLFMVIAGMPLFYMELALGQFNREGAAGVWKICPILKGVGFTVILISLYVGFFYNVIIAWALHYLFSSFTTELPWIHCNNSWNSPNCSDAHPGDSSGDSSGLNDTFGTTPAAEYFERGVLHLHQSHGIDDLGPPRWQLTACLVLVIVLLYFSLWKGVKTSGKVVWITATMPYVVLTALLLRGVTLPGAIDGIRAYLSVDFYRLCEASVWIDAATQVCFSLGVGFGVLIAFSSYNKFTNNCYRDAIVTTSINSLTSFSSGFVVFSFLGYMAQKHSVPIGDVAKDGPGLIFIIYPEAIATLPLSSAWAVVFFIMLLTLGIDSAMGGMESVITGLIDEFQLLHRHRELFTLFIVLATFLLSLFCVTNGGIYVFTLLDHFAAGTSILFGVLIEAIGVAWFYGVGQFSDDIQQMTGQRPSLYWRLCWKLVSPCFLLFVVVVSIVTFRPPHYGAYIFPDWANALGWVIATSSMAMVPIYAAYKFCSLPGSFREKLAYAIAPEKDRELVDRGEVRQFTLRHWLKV
Source text: (§1) Mass spectrometry (MS)-based chemical proteomics experiments emulated these findings (Fig. 3d).

[16] = molecular target: T18, norepinephrine transporter(h) (Homo sapiens, UniProt P23975); assay: biochemical; set-up: CEREP off-target panel, radioligand binding, inhibition of control specific binding; details: read-out: % Inhibition of Control Specific Binding, Mean
T18 construct: gene SLC6A2
Source text: as §1

[17] = molecular target: T19, Potassium Channel hERG (human) (Homo sapiens, UniProt Q12809); assay: in vitro; set-up: CEREP off-target panel, radioligand binding, inhibition of control specific binding; details: read-out: % Inhibition of Control Specific Binding, Mean
T19 construct: gene KCNH2
Source text: as §1

[18] = molecular target: T20, MAGL (monoacylglycerol lipase) (Mus musculus, UniProt O35678); assay: gel-based competitive ABPP (FP-TAMRA, MB064) in mouse brain membrane proteome; type: biochemical; set-up: gene Mgll; endogenous, mouse brain proteome
T20 sequence (O35678 1-303): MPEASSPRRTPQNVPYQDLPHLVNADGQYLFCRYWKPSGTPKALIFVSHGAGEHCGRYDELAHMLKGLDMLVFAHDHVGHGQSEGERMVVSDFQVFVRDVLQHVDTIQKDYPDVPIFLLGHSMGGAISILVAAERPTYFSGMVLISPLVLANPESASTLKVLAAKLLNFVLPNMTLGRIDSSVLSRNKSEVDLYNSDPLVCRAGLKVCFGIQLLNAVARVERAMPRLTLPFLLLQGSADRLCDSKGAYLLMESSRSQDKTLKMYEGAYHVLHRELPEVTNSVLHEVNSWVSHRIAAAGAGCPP

[19] = molecular target: T21, hormone-sensitive lipase (HSL) (Homo sapiens, UniProt Q05469); assay: gel-based competitive ABPP (FP-TAMRA) on HEK293T membranes expressing human HSL; type: cell-based
T21 construct: gene LIPE; full-length, C-terminal FLAG-tag, expressed in HEK293T

CCC(F)(F)C(=O)C[S+]([O-])c1ccc(C(=O)N2CCN(c3cccc(Cl)c3)[C@@H](C)[C@@H]2C)cc1Cl (mixture of isomers) [compound 3, LEI-515]
inhibition at 10 µM (5-HT transporter (h)): 4.2%
inhibition at 10 µM [1]: -10.5%
inhibition at 10 µM [2]: 6.2%
inhibition at 10 µM [3]: 2.2%
inhibition at 10 µM [4]: 22.3%
inhibition at 10 µM [5]: 6.6%
inhibition at 10 µM [6]: -4.2%
inhibition at 10 µM [7]: 48.3%
inhibition at 10 µM [8]: -26%
inhibition at 10 µM [9]: -8.1%
inhibition at 10 µM [10]: 19.5%
inhibition at 10 µM [11]: 3.5%
inhibition at 10 µM [12]: 18.3%
inhibition at 10 µM [13]: 30.2%
inhibition at 1 µM [14]: 21.7%
inhibition at 10 µM [14]: 59.5%
inhibition at 10 µM [15]: -7%
inhibition at 10 µM (dopamine transporter(h)): 45.2%
inhibition at 10 µM [16]: 25.3%
inhibition at 10 µM [17]: 5.8%
IC50 [18]: 25 nM
gel-based competitive ABPP (FP-TAMRA) on HEK293T membranes expressing human HSL [19]: confirmed by gel-based ABPP experiments using membrane fractions of HEK293T cells expressing recombinant human or mouse HSL
